Data reported in US8357518B2, “Thermostable enzymes for the hydrolysis of mannan-containing polysaccharides” (The Board of Trustees of the University of Illinois, priority 2010, dated 2013).
Numbering of substitutions follows the chain as printed.

Columns and labels:
Type in all cases: biochemical
[1] = target: T1, Caldanaerobius polysaccharolyticus endo-β-mannanase Man5B, wild type, SEQ ID NO: 31 (Caldanaerobius polysaccharolyticus, UniProt D9J0D7); assay: Kinetic properties with pNP-linked sugars (Man5B wild type); conditions: reference
T1 sequence (D9J0D7 entry or part of it): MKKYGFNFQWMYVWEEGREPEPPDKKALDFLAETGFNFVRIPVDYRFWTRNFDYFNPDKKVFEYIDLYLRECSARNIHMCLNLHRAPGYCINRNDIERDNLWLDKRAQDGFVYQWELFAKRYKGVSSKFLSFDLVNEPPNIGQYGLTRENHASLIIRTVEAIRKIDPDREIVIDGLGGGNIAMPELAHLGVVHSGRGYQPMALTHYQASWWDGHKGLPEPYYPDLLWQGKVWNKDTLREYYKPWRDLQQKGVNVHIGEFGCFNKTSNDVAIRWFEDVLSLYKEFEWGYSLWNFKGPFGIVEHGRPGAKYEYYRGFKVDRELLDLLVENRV
Protocol: The plasmid constructs were then introduced into E. coli BL-21 CodonPlus (DE3) RIL competent cells by heat shock, and grown overnight in lysogeny broth (LB) agar medium supplemented with ampicillin (100 μg/mL) and chloramphenicol (50 μg/mL) at 37° C. After 12 h, single colonies were selected and used to inoculate fresh LB (10 mL) supplemented with the antibiotics above at the same concentrations, followed by culturing with aeration for 8 h at 37° C. The pre-cultures were then inoculated into fresh LB (1 L) supplemented with ampicillin and chloramphenicol and the cultures were incubated at 37° C. with vigorous aeration (225 rpm/min). […] Aliquots of eluted fractions were analyzed by sodium dodecyl sulfate-polyacrylamide gel electrophoresis (SDS-PAGE) and protein bands were visualized by staining with Coomassie brilliant blue G-250. […] The UV absorbances of the protein solutions were recorded at 280 nm using a Nanoprop 1000 from Thermo Scientific (Waltham, Mass.) and the protein concentrations were calculated using the following extinction coefficients: Man5A-TM1, ε280 nm=189 mM^−1 cm^−1; Man5A-TM2, ε280 nm=113 mM^−1 cm^−1; Man5B, ε280 nm=103 mM^−1 cm^−1.
Determination of kinetic properties for wild type and mutant Man5B with pNP-linked sugars. Kinetic properties of wild type and mutant Man5B were determined for pNP-β-D-mannopyranoside and pNP-β-D-cellobioside. […]

[2] = target: T2, Caldanaerobius polysaccharolyticus endo-β-mannanase Man5B (SEQ ID NO: 31) variant E137A (Caldanaerobius polysaccharolyticus, UniProt D9J0D7, E137A); assay: Kinetic properties with pNP-linked sugars (Man5B E137A); conditions: relative to wild type
T2 sequence (D9J0D7 1-330 E137A): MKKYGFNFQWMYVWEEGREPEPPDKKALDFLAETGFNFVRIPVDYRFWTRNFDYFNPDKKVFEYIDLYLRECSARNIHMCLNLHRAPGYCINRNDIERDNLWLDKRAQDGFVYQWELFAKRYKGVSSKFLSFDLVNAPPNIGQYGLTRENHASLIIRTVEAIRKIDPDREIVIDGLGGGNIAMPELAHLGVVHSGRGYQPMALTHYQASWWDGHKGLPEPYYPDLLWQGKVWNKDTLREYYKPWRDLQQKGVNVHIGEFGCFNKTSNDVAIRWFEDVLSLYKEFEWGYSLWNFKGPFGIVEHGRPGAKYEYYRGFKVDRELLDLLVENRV
Protocol: (§1) Determination of kinetic properties for wild type and mutant Man5B with pNP-linked sugars. Kinetic properties of wild type and mutant Man5B were determined for pNP-β-D-mannopyranoside and pNP-β-D-cellobioside. The substrate concentrations ranged from 0.06 to 10 mM and reactions were performed at 65° C. in citrate buffer (50 mM sodium citrate, pH 5.5). The reactions were equilibrated to 65° C. using a thermostated Cary 300 UV-Vis spectrophotometer, and the reactions were initiated by the addition of wild type (5 nM, final concentration) or mutant (2 μM, final concentration) Man5B. The rate of pNP release was determined by continuously monitoring the absorbance at 400 nm. Initial rate data were then plotted against the substrate concentrations, and the values of the Michaelis-Menten constant (KM) and the maximum velocity (Vmax) were estimated from a nonlinear curve fit using GraphPad Prism v5.01 from GraphPad Software (San Diego, Calif.). The kcat was calculated as the quotient of the Vmax and the concentration of enzyme used in the reaction.
(§2) Site-directed mutagenesis. Mutagenesis was carried out using PCR-based […] […]
(§3) Next, to test whether the mutations introduced in Man5B had any effects on the catalytic activity of this enzyme, the catalytic parameters for the wild type and mutant enzymes were determined using pNP-β-D-cellobioside and pNP-β-D-mannopyranoside as substrates.

[3] = target: T3, Caldanaerobius polysaccharolyticus endo-β-mannanase Man5B (SEQ ID NO: 31) variant E137Q (Caldanaerobius polysaccharolyticus, UniProt D9J0D7, E137Q); assay: Kinetic properties with pNP-linked sugars (Man5B E137Q); conditions: relative to wild type
T3 sequence (D9J0D7 1-330 E137Q): T2 sequence (D9J0D7 1-330 E137A) with A137Q
Protocol: as §1, §2, §3

[4] = target: T4, Caldanaerobius polysaccharolyticus endo-β-mannanase Man5B (SEQ ID NO: 31) variant E258A (Caldanaerobius polysaccharolyticus, UniProt D9J0D7, E258A); assay: Kinetic properties with pNP-linked sugars (Man5B E258A); conditions: relative to wild type
T4 sequence (D9J0D7 1-330 E258A): T2 sequence (D9J0D7 1-330 E137A) with A137E, E258A
Protocol: as §1, §2, §3

[5] = target: T5, Caldanaerobius polysaccharolyticus endo-β-mannanase Man5B (SEQ ID NO: 31) variant E258Q (Caldanaerobius polysaccharolyticus, UniProt D9J0D7, E258Q); assay: Kinetic properties with pNP-linked sugars (Man5B E258Q); conditions: relative to wild type
T5 sequence (D9J0D7 1-330 E258Q): T2 sequence (D9J0D7 1-330 E137A) with A137E, E258Q
Protocol: as §1, §2, §3

[6] = target: T1, Caldanaerobius polysaccharolyticus endo-β-mannanase Man5B, wild type, SEQ ID NO: 31; assay: Catalytic efficiency with oligosaccharides, HPAEC (Man5B); conditions: value for GM3 higher than that for GM2
Protocol: Cloning, expression, and purification of Man5A-TM1, Man5A-TM2 and Man5B. C. polysaccharolyticus was cultured in TYG medium and DNA was isolated from mid-log cultures and purified using the Qiagen DNeasy Blood and Tissue kit with an integrated RNase treatment step. The genome of C. polysaccharolyticus was partially sequenced by the W. M. Keck Biotechnology Center at the University of Illinois at Urbana-Champaign. A Newbler assembly was generated which is comprised of ½ plate of FLX PE 454 data and ½ plate of 8 kb paired-end GSFLX Titanium data using a Genome Sequencer instrument from 454 Life Sciences (Branford, Conn.). The partial genome sequence was uploaded onto the Rapid Annotation using Subsystem Technology (RAST) server (Aziz et al., BMC Genomics, 9:75, 2008). Auto-annotation of the C. polysaccharolyticus partial genome sequence identified ORF0760 as a gene predicted to encode a bifunctional β-D-mannanase/endoglucanase (Man5B). Man5A was previously identified in a recombinant phage library of C. polysaccharolyticus genomic DNA, which was screened for endoglucanase activity (Cann et al., J Bacteriol, 181:1643, 1999) and the full sequence of this gene was also identified in the partial genome sequence for C. polysaccharolyticus. […]

SMILES	rkcat (residual kcat) [1] [%]	rkcat (residual kcat) [2] [%]	rkcat (residual kcat) [3] [%]	rkcat (residual kcat) [4] [%]	rkcat (residual kcat) [5] [%]	catalytic efficiency (kcat/Km), GM3 relative to GM2 [6] [fold]
O=[N+]([O-])c1ccc(O[C@@H]2O[C@H](CO)[C@@H](O[C@@H]3O[C@H](CO)[C@@H](O)[C@H](O)[C@H]3O)[C@H](O)[C@H]2O)cc1 [pNP-cellobioside, pNP-β-D-cellobioside]	100	0.48	1.96	0.55	0.62	–
OC[C@H]1O[C@H](OC[C@H]2OC(O)[C@@H](O)[C@@H](O)[C@@H]2O[C@@H]2O[C@H](CO)[C@@H](O[C@@H]3O[C@H](CO)[C@@H](O)[C@H](O)[C@@H]3O)[C@H](O)[C@@H]2O)[C@H](O)[C@@H](O)[C@H]1O (stereo partly drawn) [6-galactosyl-mannotriose, α-1,6-galactosyl-mannotriose]	–	–	–	–	–	20
O=[N+]([O-])c1ccc(O[C@@H]2O[C@H](CO)[C@@H](O)[C@H](O)[C@@H]2O)cc1 [pNP-β-D-mannopyranoside]	100	0.04	0.04	0.04	0.03	–
